Measurements from patent US20230391774A1, “Novel Compounds” (AC Immune SA, priority 2020, published 2023).
Structures can show the parent of a compound that is named as a salt.

Columns and labels:
[1] = molecular target: T1, Tau K18 fragment aggregates (amino acids 244 to 372 of human Tau441) (Homo sapiens, UniProt P10636); assay: Tau K18 disaggregation assay by ThT; type: biochemical; settings: ThT fluorescence; 2 μM K18 aggregates, 30 minutes at RT
T1 construct: encompassing amino acids 244 to 372 of the longest isoform (2N4R) of human Tau441; purchased Biotechne; host or cells: bacteria
Protocol: Tau K18 Disaggregation Assay by ThT
The Tau K18 fragment, encompassing amino acids 244 to 372 of the longest isoform (2N4R) of human Tau441, was expressed in bacteria and purified (Biotechne). For the K18 disaggregation assay by ThT, 35 μM of recombinant K18 in PBS were aggregated for 24 hours at 37° C. in presence of 25 μM of heparin (Sigma-Aldrich) and 10 mM of 1,4-Dithiothreito (DTT from Sigma-Aldrich) under shaking at 750 RPM. Compound 1 was dissolved in anhydrous dimethyl sulfoxide (DMSO, Sigma-Aldrich) to reach a concentration of 10 mM. K18 aggregates and serial dilutions of compounds were mixed together in PBS (volume 50 μL) to a final concentration of 2 μM of K18 aggregates and from 400 to 0.1 μM of Compound 1. The mixture was incubated for 30 minutes at room temperature (RT), then 40 μL of this mixture were transferred into a black 384-well plate assay (Perkin-Elmer) and mixed with 10 μL of 100 μM ThT in 250 mM glycine (both from Sigma-Aldrich) in PBS. Fluorescence (relative fluorescence units; RFU) was measured in monoplicate or duplicate on a Tecan reader (excitation: 440 nm; emission: 485 nm). Percentage of K18 disaggregation was then calculated and half maximal effective concentration (EC50) was determined using GraphPad Prism version 8 (GraphPad Software) assuming a one-binding site fitting model, see Table 3 and Table 4.

[2] = molecular target: T2, flTau aggregates (longest isoform of human Tau, 2N4R) (Homo sapiens, UniProt P10636); assay: Full-length Tau (flTau) disaggregation assay by Thioflavin T (ThT); type: biochemical; settings: ThT fluorescence; 60 nM flTau aggregates, 30 minutes at RT; read-out: flTau disaggregation EC50
T2 construct: 35 μM of recombinant full-length (fl) Tau in phosphate-buffered saline (PBS) were aggregated; purchased Biotechne; host or cells: bacteria
Protocol: Full-Length Tau (flTau) Disaggregation Assay by Thioflavin T (ThT)
The longest isoform of human Tau (2N4R; 441 amino acids) was expressed in bacteria and purified (Biotechne). For the Tau disaggregation assay by ThT, 35 μM of recombinant full-length (fl) Tau in phosphate-buffered saline (PBS) were aggregated for 72 hours at 37° C. in presence of 35 μM of heparin (Sigma-Aldrich) and 10 mM of […] (Sigma-Aldrich) under shaking at 1000 RPM. Compound 1 was dissolved in anhydrous dimethyl sulfoxide (DMSO, Sigma-Aldrich) to reach a concentration of 2.5 mM. flTau aggregates and serial dilutions of compound 1 were mixed together in PBS (volume 50 μL) to a final concentration of 60 nM of flTau aggregates and from 20 to 0.0012 μM of Compound 1. The mixture was incubated for 30 minutes at room temperature (RT), then 40 μL of this mixture were transferred into a black 384-well plate assay (Perkin-Elmer) and mixed with 10 μL of 20 μM ThT in 250 mM glycine (both from Sigma-Aldrich) in PBS. Fluorescence (relative fluorescence units; RFU) was measured in monoplicate or duplicate on a Tecan reader (excitation: 440 nm; emission: 485 nm). Percentage of flTau disaggregation was then calculated and the half maximal effective concentration (EC50) was determined using GraphPad Prism version 8 (GraphPad Software) assuming a one-binding site fitting model, see Table 3 and Table 4.

T1 sequence (P10636 561-689): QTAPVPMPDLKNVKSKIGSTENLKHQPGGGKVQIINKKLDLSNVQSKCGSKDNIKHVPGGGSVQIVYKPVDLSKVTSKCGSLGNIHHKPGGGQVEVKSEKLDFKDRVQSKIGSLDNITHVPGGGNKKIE
T2 sequence (P10636 1-441 isoform P10636-8): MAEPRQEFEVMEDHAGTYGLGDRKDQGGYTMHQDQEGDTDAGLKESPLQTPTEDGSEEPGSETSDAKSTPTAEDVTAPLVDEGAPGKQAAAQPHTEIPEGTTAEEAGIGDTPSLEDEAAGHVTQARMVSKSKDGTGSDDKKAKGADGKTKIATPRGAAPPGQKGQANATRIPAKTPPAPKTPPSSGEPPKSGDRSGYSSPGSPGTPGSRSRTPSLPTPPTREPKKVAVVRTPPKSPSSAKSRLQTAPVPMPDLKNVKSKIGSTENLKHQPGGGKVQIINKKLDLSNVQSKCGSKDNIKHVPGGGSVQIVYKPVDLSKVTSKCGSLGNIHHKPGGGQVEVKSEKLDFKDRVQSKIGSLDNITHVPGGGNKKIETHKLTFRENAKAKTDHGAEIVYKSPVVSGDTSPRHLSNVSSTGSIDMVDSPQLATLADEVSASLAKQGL

EC50 [1]	EC50 [2]	SMILES
1 to 10 µM	< 1 µM	O=C(Nc1ccc2nc(N3CCOCC3)sc2c1)c1c[nH]c2ccc(F)cc12 [Example 17, 5-fluoro-N-(2-morpholinobenzo[d]thiazol-6-yl)-1H-indole-3-carboxamide]
1 to 10 µM	1 to 10 µM	c1ccc2c(C3CCN(c4cc5sc(N6CCOCC6)nc5cn4)CC3)n[nH]c2c1 [Example 35, 4-(6-(4-(1H-indazol-3-yl)piperidin-1-yl)thiazolo[4,5-c]pyridin-2-yl)morpholine]
10 to 50 µM	–	c1ccc2c(C3CCN(c4cnc5sc(N6CCOCC6)nc5c4)CC3)n[nH]c2c1 [Example 42, 4-(6-(4-(1H-indazol-3-yl)piperidin-1-yl)thiazolo[5,4-b]pyridin-2-yl)morpholine]
10 to 50 µM	–	c1ccc2c(C3CCN(c4ccc5nc(N6CCOCC6)oc5c4)CC3)c[nH]c2c1 [Example 52, 6-(4-(1H-indol-3-yl)piperidin-1-yl)-2-morpholinobenzo[d]oxazole]
10 to 50 µM	–	c1cc2c(C3CCN(c4ccc5oc(N6CCOCC6)nc5c4)CC3)c[nH]c2cn1 [Example 54, 5-(4-(1H-pyrrolo[2,3-c]pyridin-3-yl)piperidin-1-yl)-2-morpholinobenzo[d]oxazole]
1 to 10 µM	–	c1ccc2c(N3CCN(c4ccc5oc(N6CCOCC6)nc5c4)CC3)c[nH]c2c1 [Example 56, 5-(4-(1H-indol-3-yl)piperazin-1-yl)-2-morpholinobenzo[d]oxazole]
10 to 50 µM	–	Cn1cc(C2CCN(c3ccc4nc(N5CCOCC5)sc4n3)CC2)c2cc(F)cnc21 [Example 57, 4-(5-(4-(5-fluoro-1-methyl-1H-pyrrolo[2,3-b]pyridin-3-yl)piperidin-1-yl)thiazolo[5,4-b]pyridin-2-yl)morpholine]
10 to 50 µM	–	c1ccc2c(C3CCN(c4cc5oc(N6CCOCC6)nc5cn4)CC3)c[nH]c2c1 [Example 58, 6-(4-(1H-indol-3-yl)piperidin-1-yl)-2-morpholinooxazolo[4,5-c]pyridine]
1 to 10 µM	–	c1ccc2c(C3CCN(c4ccc5sc(N6CCOCC6)nc5n4)CC3)n[nH]c2c1 [Example 62, 4-(5-(4-(1H-indazol-3-yl)piperidin-1-yl)thiazolo[4,5-b]pyridin-2-yl)morpholine]
< 1 µM	–	c1ccc2c(C3CCN(c4cc5nc(N6CCOCC6)sc5cn4)CC3)n[nH]c2c1 [Example 66, 4-(6-(4-(1H-indazol-3-yl)piperidin-1-yl)thiazolo[5,4-c]pyridin-2-yl)morpholine]
1 to 10 µM	–	Fc1ccc2[nH]cc(C3CCN(c4ccc5oc(N6CCOCC6)nc5c4)CC3)c2c1 [Example 69, 5-(4-(5-fluoro-1H-indol-3-yl)piperidin-1-yl)-2-morpholinobenzo[d]oxazole]
10 to 50 µM	–	c1ccc2c(C3CCN(c4ccc5nc(N6CCOCC6)oc5n4)CC3)c[nH]c2c1 [Example 101, 5-(4-(1H-indol-3-yl)piperidin-1-yl)-2-morpholinooxazolo[5,4-b]pyridine]
1 to 10 µM	–	Fc1cnc2c(C3CCN(c4ccc5nc(N6CCOCC6)oc5c4)CC3)c[nH]c2c1 [Example 103, 6-(4-(6-fluoro-1H-pyrrolo[3,2-b]pyridin-3-yl)piperidin-1-yl)-2-morpholinobenzo[d]oxazole]
10 to 50 µM	–	c1ccc2c(C3CCN(c4ccc5nc(N6CCOCC6)sc5n4)CC3)c[nH]c2c1 [Example 108, 4-(5-(4-(1H-indol-3-yl)piperidin-1-yl)thiazolo[5,4-b]pyridin-2-yl)morpholine hydrochloride]

More lines, now with the values behind:

SMILES	EC50 [1]	EC50 [2]
O=C(Nc1c[nH]c2ccccc12)c1ccc2oc(N3CCOCC3)nc2c1 [Example 7, N-(1H-indol-3-yl)-2-morpholinobenzo[d]oxazole-5-carboxamide]	< 1 µM	< 1 µM
c1ccc2c(-c3cnn(-c4ccc5oc(N6CCOCC6)nc5c4)c3)c[nH]c2c1 [Example 9, 5-(4-(1H-indol-3-yl)-1H-pyrazol-1-yl)-2-morpholinobenzo[d]oxazole]	< 1 µM	< 1 µM
c1ccc2c(C3CCN(c4ccc5oc(N6CCOCC6)nc5c4)CC3)c[nH]c2c1 [Example 19, 5-(4-(1H-indol-3-yl)piperidin-1-yl)-2-morpholinobenzo[d]oxazole]	1 to 10 µM	1 to 10 µM
c1cnc2[nH]cc(C3CCN(c4ccc5oc(N6CCOCC6)nc5c4)CC3)c2c1 [Example 20, 5-(4-(1H-pyrrolo[2,3-b]pyridin-3-yl)piperidin-1-yl)-2-morpholinobenzo[d]oxazole]	1 to 10 µM	< 1 µM
c1ccc2c(C3CCN(c4cc5sc(N6CCOCC6)nc5cn4)CC3)c[nH]c2c1 [Example 24, 4-(6-(4-(1H-indol-3-yl)piperidin-1-yl)thiazolo[4,5-c]pyridin-2-yl)morpholine]	< 1 µM	< 1 µM
Cn1cc(C2=CCN(c3ccc4oc(N5CCOCC5)nc4c3)CC2)c2cc(F)cnc21 [Example 32, 5-(4-(5-fluoro-1-methyl-1H-pyrrolo[2,3-b]pyridin-3-yl)-3,6-dihydropyridin-1(2H)-yl)-2-morpholinobenzo[d]oxazole]	1 to 10 µM	< 1 µM
Cn1cc(C2CCN(c3ccc4oc(N5CCOCC5)nc4c3)C2)c2cc(F)cnc21 (stereo not drawn) [Example 33, 5-(3-(5-fluoro-1-methyl-1H-pyrrolo[2,3-b]pyridin-3-yl)pyrrolidin-1-yl)-2-morpholinobenzo[d]oxazole]	1 to 10 µM	1 to 10 µM
c1ccc2c(Nc3ccc4oc(N5CCOCC5)nc4c3)n[nH]c2c1 [Example 36, N-(1H-indazol-3-yl)-2-morpholinobenzo[d]oxazol-5-amine]	10 to 50 µM	1 to 10 µM
c1ccc2c(C3CCN(c4ccc5oc(N6CCOCC6)nc5c4)C3)n[nH]c2c1 (stereo not drawn) [Example 37, 5-(3-(1H-indazol-3-yl)pyrrolidin-1-yl)-2-morpholinobenzo[d]oxazole]	< 1 µM	1 to 10 µM
Fc1cnc2c(C3CCN(c4ccc5oc(N6CCOCC6)nc5c4)CC3)c[nH]c2c1 [Example 53, 5-(4-(6-fluoro-1H-pyrrolo[3,2-b]pyridin-3-yl)piperidin-1-yl)-2-morpholinobenzo[d]oxazole]	1 to 10 µM	–
c1cc2[nH]cc(C3CCN(c4ccc5oc(N6CCOCC6)nc5c4)CC3)c2cn1 [Example 55, 5-(4-(1H-pyrrolo[3,2-c]pyridin-3-yl)piperidin-1-yl)-2-morpholinobenzo[d]oxazole]	1 to 10 µM	–
c1ccn2c(C3CCN(c4ccc5nc(N6CCOCC6)oc5c4)CC3)cnc2c1 [Example 59, 6-(4-(imidazo[1,2-a]pyridin-3-yl)piperidin-1-yl)-2-morpholinobenzo[d]oxazole]	1 to 10 µM	–
c1ccc2c(C3CCN(c4ccc5sc(N6CCOCC6)nc5c4)CC3)n[nH]c2c1 [Example 63, 4-(5-(4-(1H-indazol-3-yl)piperidin-1-yl)benzo[d]thiazol-2-yl)morpholine]	10 to 50 µM	–
c1ccc2c(C3CCN(c4ccc5nc(N6CCOCC6)oc5n4)CC3)n[nH]c2c1 [Example 64, 5-(4-(1H-indazol-3-yl)piperidin-1-yl)-2-morpholinooxazolo[5,4-b]pyridine]	1 to 10 µM	–
c1ccc2c(C3CCN(c4cnc5sc(N6CCOCC6)nc5c4)CC3)c[nH]c2c1 [Example 65, 4-(6-(4-(1H-indol-3-yl)piperidin-1-yl)thiazolo[5,4-b]pyridin-2-yl)morpholine]	1 to 10 µM	–
c1ccc2c(C3CCN(c4cc5nc(N6CCOCC6)sc5cn4)CC3)c[nH]c2c1 [Example 67, 4-(6-(4-(1H-indol-3-yl)piperidin-1-yl)thiazolo[5,4-c]pyridin-2-yl)morpholine]	< 1 µM	–
Cn1cc(C2CC3CN(c4ccc5oc(N6CCOCC6)nc5c4)CC3C2)c2cc(F)cnc21 (stereo not drawn) [Example 112, 5-(5-(5-fluoro-1-methyl-1H-pyrrolo[2,3-b]pyridin-3-yl)hexahydrocyclopenta[c]pyrrol-2(1H)-yl)-2-morpholinobenzo[d]oxazole hydrochloride]	1 to 10 µM	–
